In patent US20250161338A1, “Compounds for Anti-aging Intervention” (AGENCY FOR SCIENCE, TECHNOLOGY AND RESEARCH, priority 2022, published 2025):
Counter-ions that a name gives are not always drawn.

Legend:
[1] = system: prototrophic yeast strain (CEN.PK113-7D); experiment: Yeast outgrowth in YPD liquid medium (CLS of aged cells); format: cell-based, Saccharomyces cerevisiae; details: for Outgrowth: concentration tested 100 μM, OD600 nm after 24 h in YPD at 30° C., age point day 14; for aged cell survival in yeast: various concentrations, outgrowth relative to Day 2 (FIGS. 22A to D)
Experimental: (§1) CLS experiments were performed in 96-well plates with 200 μL yeast culture. Cellular inoculums were transferred into 96-well plates containing serially double-diluted concentrations (0 to 10 nM) of rapamycin. Cellular inoculum was transferred into 96-well plates containing serially double-diluted concentrations (0 to 8 mM) of 2,5-anhydro-D-mannitol, D-fructose, D-mannitol, D-maltose, and D-sorbitol in SD medium. Cells were incubated at 30° C., and the growth was measured at different time points. […] Cell survival was quantified at various age time points by three different approaches: (i) PI fluorescence-based method, (ii) outgrowth in YPD liquid medium, and (iii) spotting assay (FIG. 1).
Outgrowth (OD600) of aged cells was measured by the microplate reader. Quantification of cell survival for each age point was determined as relative to Day 1 (considered 100% cell survival). This quantification was performed by using the formula,
[formula] • where OutgrowthDay n refers to the OD600 nm absorbance reading recorded on a specific day, OutgrowthDay 1 refers to the OD600 nm absorbance reading recorded on the first day where 100% cell survival is assumed.
The CLS of the aged cells was further determined by the yeast outgrowth in YPD liquid medium method as described above. […] At chronological age point day 14, 3-μL of culture were transferred to a second 96-well plate containing 200 μL YPD medium.

[2] = system: prototrophic yeast strain (CEN.PK113-7D); experiment: Propidium iodide fluorescence-based CLS method in yeast (incl. high-throughput screening); format: cell-based, Saccharomyces cerevisiae; details: concentration tested 100 μM; for Yeast CLS increase: Yes/No call of the screen; for PI intensity: solvent DMSO or water, chronological age point Day 7 (72 h growth = Day 1), lower = more survival;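 as to PI intensity: untreated reference is eight DMSO and water control wells per plate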
Experimental: Yeast strain was recovered from frozen glycerol stock at 30° C. on YPD agar medium. Yeast was left to propagate in SD medium overnight at 30° C. with shaking at 220 revolutions per minute (rpm). Cells propagated overnight were diluted to a starting optical density at 600 nm (OD600) of approximately 0.2 in fresh SD medium to begin the chronological lifespan (CLS) experiments.
as §1
Yeast cells (40 μL) from different age time points were transferred into a second 96-well plate (different to the 96-well plate in which the CLS analysis as outlined above was performed). Cells were washed and incubated in 100 μL 1×phosphate buffered saline (PBS) with propidium iodide (PI) (5 μg/mL) for 15 minutes in the dark. Positive and negative control samples were included for quantitative analysis. Positive control (cells boiled at 100° C. for 15 minutes) was PI-stained and processed in the same 96-well plate. Samples without PI-stained cells served as the negative control. After incubation, cells were washed and resuspended in 100 μL PBS. The fluorescence reading of the samples (excitation and emission wavelengths at 535 nm and 617 nm, respectively) and OD600 were measured with a microplate reader (BioTek, Winooski, Vermont, United States). The fluorescence intensity of each sample was normalized with OD600. The background fluorescence signal of the unstained negative sample was subtracted from the normalized fluorescence intensity of each sample. The obtained fluorescence intensity of the positive control (boiled dead cells) was considered 0% cell survival. Cell death was validated by allowing the boiled dead cells to grow in medium. Cell survival at different age time points of samples were calculated by normalizing the fluorescence intensity with positive control sample (boiled cells).
High-throughput screening of various chemicals was tested using the same protocol for the propidium iodide fluorescence-based method as described above. The prototrophic yeast strain (CEN.PK113-7D) was grown in the synthetic defined medium with different chemical reagents at their respective single testing concentration (Table 1) in addition to eight replicates of DMSO and water controls in 96-well plates at 30° C.

| Compound | Outgrowth [1] | Yeast CLS increase [2] | PI intensity [2] | aged cell survival in yeast [1] |
| --- | --- | --- | --- | --- |
| C#CC1(O)CC[C@H]2[C@@H]3CCC4=CC(=O)CC[C@@H]4[C@H]3CC[C@@]21CC (mixture of isomers) [Norgestrel, reference compound] | 0.1 | No | 75,338.8 | – |
| O=C(O)C(O)Cc1ccccc1 (racemic) [DL-3-Phenyllactic acid] | 0.1 | No | 65,266.9 | – |
| C[S+](C)CCC(N)C(=O)O.[Cl-] (racemic) [DL-Methionine methylsulfonium (chloride)] | 0.1 | No | 66,281.7 | – |
| CC(C)(CO)C(O)C(=O)NCCCO (racemic) [DL-Panthenol] | 0.1 | No | 71,468.6 | – |
| NC(CO)C(=O)O (racemic) [DL-Serine] | 1.1 | Yes | 33,155.7 | – |
| O=C[C@H](O)[C@H](O)[C@H](O)CO (single isomer, unassigned) [D-Ribose(mixture of isomers)] | 0.1 | No | 60,023.1 | – |
| O=C(O)c1ccc(O)cc1O [2,4-Dihydroxybenzoic acid] | 0.1 | No | 76,326.3 | – |
| O=C(O)c1ccco1 [2-Furoic acid] | 0.1 | No | 72,748.2 | – |
| Oc1ccc2ccccc2c1 [2-Naphthol] | 0.1 | No | 72,298.9 | – |
| CCCC(=O)C(=O)O [2-Oxovaleric acid] | 0.1 | No | 61,246.4 | – |
| CC(C(=O)O)c1ccccc1 (stereo not shown) [2-Phenylpropionic acid] | 0.1 | No | 66,998.4 | – |
| Nc1ncnc2c1ncn2[C@H]1C[C@H](O)[C@@H](CO)O1 [2′-Deoxyadenosine] | 0.1 | No | 70,796.4 | – |
| COc1ccc(C=CC(=O)O)cc1OC [3,4-Dimethoxycinnamic acid] | 0.1 | No | 70,914.2 | – |
| COc1ccc(CC(=O)O)cc1OC [3,4-Dimethoxyphenylacetic acid] | 0.1 | No | 70,394.7 | – |
| O=C(O)c1cc(O)cc(O)c1 [3,5-Dihydroxybenzoic acid] | 0.1 | No | 59,369.7 | – |
| N[C@@H](Cc1ccc(O)c(Cl)c1)C(=O)O [3-Chloro-L-tyrosine] | 0.1 | No | 67,122.0 | – |
| CCc1ccc(O)cc1 [4-Ethylphenol] | 0.1 | No | 58,041.7 | – |
| COc1ccc(C=CC(=O)O)cc1 [4-Methoxycinnamic acid] | 0.1 | No | 89,890.5 | – |
| Cc1cc(=O)oc2cc(O)ccc12 [4-Methylumbelliferone] | 0.1 | No | 90,234.6 | – |
| CC(=O)c1ccc(O)c(C(=O)O)c1 [5-Acetylsalicylic acid] | 0.1 | No | 63,538.6 | – |
| O=c1[nH]cc(F)c(=O)[nH]1 [5-fluorouracil, reference compound] | – | – | – | survived longer as compared to those without treatment |

| Compound | Outgrowth [1] | Yeast CLS increase [2] | PI intensity [2] | aged cell survival in yeast [1] |
| --- | --- | --- | --- | --- |
| CC(C)CCC[C@@H](C)[C@H]1CC[C@H]2[C@@H]3CC[C@H]4CC(=O)CC[C@]4(C)[C@H]3CC[C@]12C [5α-Cholestan-3-one] | 0.1 | No | 62,022.6 | – |
| C[C@H](O)[C@H](O)c1cnc2nc(N)[nH]c(=O)c2n1 [6-Biopterin] | 0.1 | No | 75,974.5 | – |
| CC(C)CCC[C@](C)(O)[C@H]1CC[C@H]2[C@@H]3CC=C4C[C@@H](O)CC[C@]4(C)[C@H]3CC[C@@]21C [20(S)-Hydroxycholesterol] | 0.1 | No | 75,450.9 | – |
| NC[C@H](CC(=O)O)c1ccc(Cl)cc1 [(R)-Baclofen, reference compound] | 0.1 | No | 61,049.3 | – |
| CC(C)=CCC[C@@H](C)CCO [(R)-Citronellol] | 0.1 | No | 75,290.6 | – |
| O=C(O)[C@H]1CCCN1 [(R)-pyrrolidine-2-carboxylic acid] | 0.1 | No | 80,551.7 | – |
| O=C(O)[C@@H](O)Cc1ccccc1 [(S)-2-Hydroxy-3-phenylpropanoic acid] | 0.1 | No | 72,969.5 | – |
| Cn1cc(C[C@H](N)C(=O)O)c2ccccc21 [(S)-Indoximod] | 0.1 | No | 78,648.2 | – |
| Oc1cc(O)c2c(c1)O[C@H](c1cc(O)c(O)c(O)c1)[C@H](O)C2 [(−)-Epigallocatechin] | 0.1 | No | 62,025.6 | – |
| N[C@H](C(=O)O)[C@@H]1CC(Cl)=NO1 [Acivicin] | 1.0 | Yes | 41,066.2 | – |
| CCCCC[C@H](CC(=O)NO)C(=O)N[C@H](C(=O)N1CCC[C@H]1CO)C(C)C [Actinonin] | 0.1 | No | 75,254.2 | – |
| COCCCOc1cc(C[C@@H](C[C@H](N)[C@@H](O)C[C@H](C(=O)NCC(C)(C)C(N)=O)C(C)C)C(C)C)ccc1OC.COCCCOc1cc(C[C@@H](C[C@H](N)[C@@H](O)C[C@H](C(=O)NCC(C)(C)C(N)=O)C(C)C)C(C)C)ccc1OC.O=C(O)/C=C/C(=O)O [Aliskiren (hemiumarate), reference compound] | 0.1 | No | 73,607.3 | – |
| O=C1c2c(O)cccc2[C@@H]([C@@H]2O[C@H](CO)[C@@H](O)[C@H](O)[C@H]2O)c2cc(CO)cc(O)c21 [Aloin B] | 0.1 | No | 89,712.0 | – |
| Nc1c(Br)cc(Br)cc1CN[C@H]1CC[C@H](O)CC1 [Ambroxol (hydrochloride), reference compound] | 0.1 | No | 63,509.0 | – |
| NCCCNCCSP(=O)(O)O [Amifostine, reference compound] | 0.2 | No | 69,013.2 | – |
| CC(CCC(=O)NCC(=O)O)C1CCC2C3CCC4CC(O)CCC4(C)C3CC(O)C12C (stereo not shown) [Glycodeoxycholic Acid] | – | – | 68,981.6 | – |
| COc1c(O)cc(O)c2c(=O)cc(-c3ccccc3)oc12 [Wogonin] | – | No | 76,348.2 | – |
| CC(C)c1c(C(=O)Nc2ccccc2)c(-c2ccccc2)c(-c2ccc(F)cc2)n1CC[C@@H](O)C[C@@H](O)CC(=O)O [atorvastatin, reference compound] | – | – | – | survived longer as compared to those without treatment |
| CN(Cc1cnc2nc(N)nc(N)c2n1)c1ccc(C(=O)N[C@@H](CCC(=O)O)C(=O)O)cc1 [methotrexate, reference compound] | – | – | – | survived longer as compared to those without treatment |
| hemin [reference compound] | – | – | – | survived longer as compared to those without treatment |
